From patent US20260207615A1, “FLUOROPYRIDOPYRIMIDINE AND FLUOROQUINAZOLINE DERIVATIES AND METHODS OF USE THEREOF” (Frontier Medicines Corporation, priority 2022, published 2026)

Target: T1, KRAS G12C and cRAF interaction (Homo sapiens, UniProt P01116, C118S/C51S/C80L/G12C)
T1 construct: truncated version comprising amino acids 1-169
Test: Inhibition of KRAS G12C and cRAF binding (AlphaScreen)
Assay type: biochemical
Conditions: KRAS G12C (Cys-light, aa 1-169) preloaded with GMPPNP, cRaf RBD (aa 50-131), 2 hours incubation
How it was run: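 Biotin-AviTag KRAS G12C (Cys-light C51S/C80L/C118S, aa 1-169, GMPPNP-loaded; 0.5 nM final)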

T1 sequence (P01116 1-169 isoform P01116-2 G12C/C51S/C80L/C118S): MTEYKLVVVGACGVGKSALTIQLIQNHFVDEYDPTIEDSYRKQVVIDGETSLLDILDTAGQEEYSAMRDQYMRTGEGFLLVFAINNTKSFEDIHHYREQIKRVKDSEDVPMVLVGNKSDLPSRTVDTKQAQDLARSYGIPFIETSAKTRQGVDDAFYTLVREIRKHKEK

IC50 | Structure (SMILES)
10 to 100 nM | C=CC(=O)N1CCN(c2nc(OC[C@@]34CCCN3C[C@H](F)C4)nc3c(F)c(-c4ccc(F)c5sc(N)nc45)c(C(F)(F)F)cc23)CC12CCOC2 (stereo partly shown) [Example 90]
100 to 500 nM | C=CC(=O)N1CCN(c2nc(OC[C@@]34CCCN3C[C@H](F)C4)nc3c(F)c(-c4ccc(F)c5sc(N)nc45)c(Cl)cc23)C[C@@]12CCOC2 [Example 91]
10 to 100 nM | C=CC(=O)N1CCN(c2nc(OC[C@@]34CCCN3C[C@H](F)C4)nc3c(F)c(-c4ccc(F)c5sc(N)nc45)c(C(F)(F)F)cc23)C[C@]12CCOC2 [Example 92]
≥ 500 nM | C=CC(=O)N1CCN(c2nc(OC[C@@]34CCCN3C[C@H](F)C4)nc3c(F)c(-c4ccc(F)c5sc(N)nc45)c(C(F)(F)F)cc23)C[C@@]12CCOC2 [Example 93]
≥ 500 nM | Cc1nccc(/C=C/C(=O)N2CCN(c3nc(OC[C@@]45CCCN4C[C@H](F)C5)nc4c(F)c(-c5ccccc5C(F)F)ncc34)CC23COC3)n1 [Example 94]

The remaining lines, values behind:

Structure (SMILES) | IC50
C=CC(=O)N1CCN(c2nc(OC[C@@]34CCCN3C[C@H](F)C4)nc3c(F)c(-c4cc(O)cc(Cl)c4C4CC4)ncc23)CC12CCOC2 (stereo partly drawn) [Example 85, 1-(9-(7-(3-chloro-2-cyclopropyl-5-hydroxyphenyl)-8-fluoro-2-(((2R,7aS)-2-fluorotetrahydro-1H-pyrrolizin-7a(5H)-yl)methoxy)pyrido[4,3-d]pyrimidin-4-yl)-2-oxa-6,9-diazaspiro[4.5]decan-6-yl) prop-2-en-1-one] | < 10 nM
C=CC(=O)N1CCN(c2nc(OC[C@@]34CCCN3C[C@H](F)C4)nc3c(F)c(-c4ccc(F)c5sc(N)nc45)c(Cl)cc23)CC12CCOC2 (stereo partly shown) [Example 86] | 100 to 500 nM
C=CC(=O)N1CCN(c2nc(OC[C@@]34CCCN3C[C@H](F)C4)nc3c(F)c(-c4ccc(F)c5sc(N)nc45)c(Cl)cc23)C[C@]12CCOC2 [Example 87] | ≥ 500 nM
C=CC(=O)N1CCN(c2nc(OC[C@@]34CCCN3C[C@H](F)C4)nc3c(F)c(-c4cccc5cccc(Cl)c45)ncc23)C[C@@]12CCOC2 [Example 88] | 100 to 500 nM
C=CC(=O)N1CCN(c2nc(OC[C@@]34CCCN3C[C@H](F)C4)nc3c(F)c(-c4cccc5cccc(Cl)c45)ncc23)C[C@]12CCOC2 [Example 89] | ≥ 500 nM
